Reference: US6509348B1, “Combination of an ADP-receptor blocking antiplatelet drug and a thromboxane A2 receptor antagonist and a method for inhibiting thrombus formation employing such combination” (Bristol-Myers Squibb Company, priority 1998, dated 2003)
“Also recorded” adds a separate entry of the source. Read-outs that look alike come from different tables or passages of the source.

What was measured:
[1] = tested on: vessel injury-induced venous thrombosis; assay: FeCl2 vessel injury-induced vena cava thrombosis in rats; assay type: in vivo, rat
Procedure: Thrombosis Procedure. Male Sprague Dawley rats (350-450 g) were anesthetized with sodium pentobarbital (50 mg/kg i.p.). A jugular vein was cannulated for drug infusion or anesthetic supplementation, and the trachea was intubated to ensure airway patency. The vena cava was isolated by a midline abdominal incision and cleared of connective tissue. A fiberoptic probe (model P-433-10, 0.8 mm tip diameter) was placed on the dorsal surface of the vena cava distal to the renal veins and attached to a laser doppler blood perfusion monitor (model BPM 430-2, Vasamedics, St. Paul, Minn.). When baseline flow had stabilized, a 2 mm×5 mm strip of filter paper was saturated in 15% FeCl2 and placed on the vena cava downstream from the flow probe for 1 min. The vena cava was dissected free 60 min after filter paper application and opened lengthwise. The thrombus was removed to determine wet and dry thrombus weights on a Sartorius R-160P balance (Brinkmann Instruments Inc., Westbury, N.Y.). Blood flow was monitored on an R-611 physiological recorder (Sensor Medics, Anaheim, Calif.). Total blood flow was calculated by planimetry and normalized as percent of baseline flow (0 min=100%) over 60 min.
(§1) Drug treatments. There were 3 separate studies. In the first study rats were dosed once daily for 3 days with an oral gavage of either saline (n=6) or clopidogrel 3 (n=5), 10 (n=5), 20 (n=4) mg/kg). One hour after the last dose, rats were anethetized for the thrombosis protocol or blood was obtained for ex vivo testing of platelet function and whole blood coagulation. In the second study a continuous i.v. infusion of either saline or ifetroban (150 μg/kg/min) was administered starting 15 min before FeCl2-induced injury of the vena cava. In the third study, rats were treated with saline or clopidogrel (2 mg/kg per day for 3 days) and administered either saline or ifetroban (150 μg/kg/min) starting 15 min before FeCl2 application.

[2] = tested on: stasis-induced vena cava thrombosis; assay: Stasis-induced (uncomplicated) vena cava thrombosis; assay type: in vivo, rat
[3] = target: T1, rat platelet thromboxane A2 receptors (Rattus norvegicus, UniProt P34978); conditions: dose used (150 μg/kg/min); Schumacher et al. 1993; cited from earlier work
T1 construct: rat platelet thromboxane A2 receptors; host or cells: rat platelets (endogenous)
T1 sequence (P34978 1-341): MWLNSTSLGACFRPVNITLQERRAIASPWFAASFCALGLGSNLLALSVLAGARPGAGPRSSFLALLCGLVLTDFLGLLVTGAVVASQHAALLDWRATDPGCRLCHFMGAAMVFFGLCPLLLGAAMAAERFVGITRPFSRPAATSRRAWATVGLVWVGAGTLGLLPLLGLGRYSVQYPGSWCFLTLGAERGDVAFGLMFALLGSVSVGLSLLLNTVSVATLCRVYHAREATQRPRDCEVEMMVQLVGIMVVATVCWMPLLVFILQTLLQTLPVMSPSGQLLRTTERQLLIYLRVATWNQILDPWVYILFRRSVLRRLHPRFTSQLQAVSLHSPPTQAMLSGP

[4] = tested on: vessel injury-induced venous thrombosis; conditions: cited from earlier work; for activity in vessel injury-induced venous thrombosis model: aspirin, previous experiments
[5] = tested on: stasis-induced vena cava thrombosis; conditions: cited from earlier work
[6] = tested on: ADP-induced platelet aggregation; assay: animal or person
Procedure: (§2) Ex Vivo Platelet Function and Coagulation Testing. Male Sprague Dawley rats (350-450 g) were anesthetized with sodium pentobarbital (50 mg/kg i.p.) The vena cava was isolated by a midline abdominal incision and 5 to 8 ml of blood was withdrawn into a 1/10th volume of 3.8% Na citrate. A portion of each blood sample was centrifuged for 3 sec in a Microcentrifuge E (Beckman, Palo Alto, Calif., USA) to prepare platelet rich plasma (PRP) and for 3 min to prepare platelet poor plasma (PPP). The PRP was adjusted to a count of ˜450×10^3 platelets per […] by adding PPP.
Platelet aggregation responses of PRP to ADP (1,3 and 10 μM; Chrono-Log Corp., Havertown, Pa., USA) were determined using the photometric technique described for a model 540 aggregometer (Chrono-Log Corp.).
as §1

whole blood coagulation = conditions: clopidogrel orally once daily for 3 days
Procedure: as §2, §1

[7] = tested on: carotid artery thrombosis; conditions: clopidogrel 10 mg/kg

CCCCCNC(=O)c1coc(C2C3CCC(O3)C2Cc2ccccc2CCC(=O)O)n1 (stereo not drawn) [ifetroban, [1S-(1α,2α,3α,4α)]-2-[[3-[4-[(pentylamino)carbonyl]-2-oxazolyl]-7-oxabicyclo[2.2.1]hept-2-yl]methyl]benzenepropanoic acid]
effect on thrombus formation ([1]; ifetroban alone, 150 μg/kg/min i.v. infusion from 15 min before FeCl2): inactive; also recorded: no significant effect; also recorded: failure; also recorded: not effective | effect on thrombus formation ([1]; ifetroban alone, 150 μg/kg/min i.v. infusion from 15 min before FeCl2, listed as Ifetroban): failed to inhibit thrombosis | efficacy in uncomplicated venous thrombosis model ([2]; ifetroban alone): effective; also recorded: intermediate efficacy | block of rat platelet thromboxane A2 receptors [3]: ≥ 99%

CC(=O)CC(c1ccccc1)c1c(O)c2ccccc2oc1=O (stereo not drawn) [warfarin]
INR ([4]; at higher dose needed for comparable inhibition of vessel injury-induced venous thrombosis): 9.5 | PT ratio (INR) ([5]; at dose giving ≧75% inhibition of stasis-induced thrombosis): 2.2

COC(=O)[C@H](c1ccccc1Cl)N1CCc2sccc2C1 [clopidogrel, methyl (4)-(S)-α-(o-chlorophenyl)-6,7-dihydrothieno[3,2-c]pyridine-5-acetate]
effect on thrombus formation ([1]; clopidogrel 2 mg/kg per day for 3 days): not sufficient to inhibit thrombus formation; also recorded: no effect | decrease in thrombus weight ([1]; clopidogrel 3 mg/kg orally once daily for 3 days): 46% | antithrombotic activity ([1]; clopidogrel 10 mg/kg): good activity | decrease in thrombus weight ([1]; clopidogrel 10 mg/kg orally once daily for 3 days): 72% | decrease in thrombus weight ([1]; clopidogrel 20 mg/kg orally once daily for 3 days): 84% | inhibition at 20 mg/kg ([6]; Rattus norvegicus, Platelet, 72 h, read-out: inhibition of ADP-induced aggregation): 86% | inhibition at 10 mg/kg ([6]; Rattus norvegicus, Platelet, 72 h, read-out: inhibition of ex vivo platelet aggregation): 50% | platelet shape change response to ADP ([6]; clopidogrel 20 mg/kg daily for 3 days): unaffected | ex vivo whole blood coagulation tests (whole blood coagulation): unaffected | antithrombotic activity ([2]; clopidogrel 10 mg/kg): good activity | antithrombotic efficacy compared across the thrombosis models ([2]; dose-dependent comparison of three rat models): least effective | antithrombotic activity [7]: good activity

CC(=O)Oc1ccccc1C(=O)O [aspirin]
activity in vessel injury-induced venous thrombosis model [4]: failure; also recorded: failed to inhibit thrombosis | activity in vessel injury-induced venous thrombosis model ([4]; listed as Aspirin): inactive | activity in uncomplicated venous thrombosis model ([5]; aspirin): inactive
